Columns and labels:
LDHA = LDHA (Homo sapiens, UniProt P00338); test: Coupled diaphorase assay, LDHA; format: biochemical; conditions: 4-7 nM LDHA, 500 μM lactate, 150 μM NAD+, lactate to pyruvate direction
Excerpt: (§1) The inhibitory properties of the compounds were investigated using a coupled enzyme assay that links the lactate dehydrogenase (LDH) reaction to the production of fluorescent resorufin by diaphorase.
(§2) Human lactate dehydrogenases (LDH) catalyze the reversible interconversion between pyruvate and lactate. LDH is capable of catalyzing both the forward (pyruvate to lactate) and the reverse (lactate to pyruvate) reaction, using either NADH or NAD+ as cofactor. The reaction proceeds in either direction dependent on various factors, such as substrate availability, the presence of necessary cofactors, temperature and pH. Different isoforms (LDH A, B, and C) of the enzyme favor different reaction directions—LDHA prefers the conversion from pyruvate to lactate, whereas LDHB preferentially oxidizes lactate to pyruvate.
(§3) The coupled assay relies on the oxidation of NAD^+ to NADH throughout the conversion of lactate to pyruvate by LDH (isoforms A, B and C). The produced NADH serves as cofactor in the diaphorase reaction, which reduces non-fluorescent resazurin to fluorescent resorufin. Therefore, the assay indirectly monitors the rate of pyruvate production. Although the consumption of NADH can be directly monitored due to the intrinsic fluorescence of the molecule (excitation: 340 nm, emission: 460 nm) there are problems linked to the direct readout method. […] Shifting the assay to longer wavelengths by coupling the LDH reaction to the conversion of resazurin to fluorescent resorufin by diaphorase reduces this compound interference. The assay direction was thus chosen to provide a robust and reliable assay.
(§4) Compounds were tested in duplicates using 2-fold, 3-fold or 4-fold serial dilutions including 11 individual concentrations, starting from 5000 μM to 30 μM. […] The controls allowed for the calculation of the percentage inhibition for each data point. […] Enzyme solution leading to final concentrations of 4-7 nM LDHA or 6 nM LDHB, as well as 0.2 U/mI diaphorase in the reaction well was dispensed into 384-well plates (Greiner bio-one) using a CyBi®-SELMA robotic pipettor. Compound dilutions and the enzyme were incubated for at least 20 min at room temperature. […] The reaction was quenched by the addition of a stop solution (final concentrations: 20 mM EDTA, 400 mM NaCl, 40 mM pyruvate). Fluorescence was read out after 5 min of incubation at an excitation wavelength of 560 nm and an emission wavelength of 590 nm on a Perkin Elmer Victor X plate reader.
(§5) Therefore, an enzyme solution only containing diaphorase was incubated with the compound dilution series.
(§6) Dose response curves were fitted in KaleidaGraph (www.synergy.com) or Dotmatics software package (www.dotmatics.com) using a standard 4-parameter fit (Levenberg-Marquardt fitting procedure), resulting in IC50 values for the test compounds.

LDHB = LDHB (Homo sapiens, UniProt P07195); test: Coupled diaphorase assay, LDHB; format: biochemical; conditions: 6 nM LDHB, 500 μM lactate, 150 μM NAD+, lactate to pyruvate direction
Chain of LDHB (P07195 whole entry): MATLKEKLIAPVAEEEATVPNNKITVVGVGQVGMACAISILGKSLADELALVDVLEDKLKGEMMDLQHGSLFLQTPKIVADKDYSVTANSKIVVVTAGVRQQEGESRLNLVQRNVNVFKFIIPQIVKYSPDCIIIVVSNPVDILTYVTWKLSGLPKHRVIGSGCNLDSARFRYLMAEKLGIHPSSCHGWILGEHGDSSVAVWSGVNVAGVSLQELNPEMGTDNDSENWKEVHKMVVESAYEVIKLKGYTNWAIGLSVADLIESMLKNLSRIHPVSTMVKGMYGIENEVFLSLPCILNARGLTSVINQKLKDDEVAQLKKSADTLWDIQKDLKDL
Excerpt: as §1, §2, §3, §4, §5, §6

[1] = in vivo; cited from earlier work
[2] = test system: MIA PaCa-2 human pancreatic cells; conditions: MIA PaCa-2 cells; cited from earlier work
LDH = conditions: in vitro; cited from earlier work
[3] = test system: mice with temporal-lobe epilepsy; conditions: directly injected into the hippocampus; cited from earlier work

IC50 (LDHA) [µM]	IC50 (LDHB) [µM]	Compound	other results
1 to 100	> 200	CCOC(=O)OC1=C(Sc2ccccc2Cl)C(=O)NC(c2ccc(Br)cc2)(c2ccsc2)C1 (stereo not drawn) [Example 1, 2-(4-bromophenyl)-5-[(2-chlorophenyl)sulfanyl]-6-oxo-2-(thiophen-3-yl)-1,2,3,6-tetrahydropyridin-4-yl ethyl carbonate]	
> 200		CC(C)COC(=O)OC1=C(Sc2ccccc2Cl)C(=O)NC(c2ccc(N3CCOCC3)cc2)(c2ccsc2)C1 (stereo not drawn) [Example 2, 5-((2-chlorophenyl)thio)-2-(4-morpholinophenyl)-6-oxo-2-(thiophen-3-yl)-1,2,3,6-tetrahydropyridin-4-yl isobutyl carbonate]	
> 200	> 200	CCOC(=O)OC1=C(Sc2ccccc2Cl)C(=O)NC(c2ccsc2)(c2cccc(Br)n2)C1 (stereo not drawn) [Example 3, 6′-bromo-5-((2-chlorophenyl)thio)-6-oxo-2-(thiophen-3-yl)-1,2,3,6-tetrahydro-[2,2′-bipyridin]-4-yl ethyl carbonate]	
> 200	> 200	COCCOC(=O)OC1=C(Sc2ccccc2Cl)C(=O)NC(c2ccsc2)(c2cccc(OCC3CCCC3)n2)C1 (stereo not drawn) [Example 4, 5-((2-chlorophenyl)thio)-6′-(cyclopentylmethoxy)-6-oxo-2-(thiophen-3-yl)-1,2,3,6-tetrahydro-[2,2′-bipyridin]-4-yl (2-methoxyethyl) carbonate]	
1 to 100		COC(=O)OC1=C(Sc2ccccc2Cl)C(=O)NC(c2ccc(N3CCOCC3)cc2)(c2ccsc2)C1 (stereo not drawn) [Example 5, 5-((2-chlorophenyl)thio)-2-(4-morpholinophenyl)-6-oxo-2-(thiophen-3-yl)-1,2,3,6-tetrahydropyridin-4-yl methyl carbonate]	
> 200	> 200	COC(=O)OC1=C(Sc2ccccc2Cl)C(=O)NC(c2ccsc2)(c2ccc(Br)cn2)C1 (stereo not drawn) [Example 6, 5′-bromo-5-((2-chlorophenyl)thio)-6-oxo-2-(thiophen-3-yl)-1,2,3,6-tetrahydro-[2,2′-bipyridin]-4-yl methyl carbonate]	
1 to 100	100 to 200	CCCCCCCCCC(=O)OC1=C(Sc2ccccc2Cl)C(=O)NC(c2ccsc2)(c2cccc(OC3COC3)n2)C1 (stereo not drawn) [Example 7, 5-((2-chlorophenyl)thio)-6′-(oxetan-3-yloxy)-6-oxo-2-(thiophen-3-yl)-1,2,3,6-tetrahydro-[2,2′-bipyridin]-4-yl decanoate]	
1 to 100	1 to 100	O=C1CC(c2ccsc2)(c2cccc(OCC3CCCC3)n2)NC(=O)C1Sc1ccccc1Cl (stereo not drawn) [Example 9, 3-((2-chlorophenyl)thio)-6-(6-(cyclopentylmethoxy)pyridin-2-yl)-6-(thiophen-3-yl)piperidine-2,4-dione, reference compound]	
		O=C1CC(c2ccc(N3CCOCC3)cc2)(c2ccsc2)NC(=O)C1Sc1ccccc1Cl (stereo not drawn) [GNE-140]	clearance [1]: rapid clearance; time of continuous LDHA inhibition until cell death [2]: ≥ 2 days
		NC(=O)C(=O)O [Oxamate]	concentration range inhibiting LDH enzyme activity (LDH): mM range; effect on seizures [3]: suppress their seizures
